In patent US12491251B2, “Degraders of cyclin-dependent kinase 7 (CDK7) and uses thereof” (DANA-FARBER CANCER INSTITUTE, INC., priority 2019, dated 2025):

Target: T1, CDK7 (Homo sapiens, UniProt P50613)
T1 construct: endogenous in cells; host or cells: Jurkat cells
Experiment: CDK7 degradation in Jurkat cells by immunoblot
Assay type: cell-based
Details: 1 μM compound, 6 hours, vs DMSO
Description: Jurkat cells were treated with DMSO or 1 μM of compounds 1-26 for 6 hours. Cells were then lysed in radioimmunoprecipitation assay (RIPA) buffer (Sigma® Life Science) containing protease/phosphatase inhibitor cocktail (Roche). The protein concentrations were measured by bicinchoninic acid assay (BCA) analysis (Pierce™). Equal amounts of protein were resolved by 4-12% Tris-Base gels (Invitrogen™), and then transferred to the immunoblot polyvinylidene difluoride (PVDF) membrane (BioRad), and immunoblotted with primary antibodies against CDK7 (cell signaling) and glyceraldehyde 3-phosphate dehydrogenase (GAPDH) (Cell Signaling Technology®), and then immunoblotted with IRDye®800-labeled goat anti-rabbit immunoglobulin G (IgG) and IRDye®680-labeled goat anti-mouse IgG (LI-COR®) secondary antibodies. The membranes were detected on an Odyssey® CLx system.

T1 sequence (P50613 2-346 limits assumed): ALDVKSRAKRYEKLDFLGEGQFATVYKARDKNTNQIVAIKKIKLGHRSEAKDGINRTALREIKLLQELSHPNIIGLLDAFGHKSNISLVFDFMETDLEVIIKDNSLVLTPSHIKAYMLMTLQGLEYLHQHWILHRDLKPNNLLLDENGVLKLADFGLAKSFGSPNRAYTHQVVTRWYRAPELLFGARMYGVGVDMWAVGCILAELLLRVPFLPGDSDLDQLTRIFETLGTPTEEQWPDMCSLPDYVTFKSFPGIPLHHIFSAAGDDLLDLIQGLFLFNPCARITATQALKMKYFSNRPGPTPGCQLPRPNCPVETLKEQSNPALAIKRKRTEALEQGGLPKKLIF
T1 sequence (P51946 whole entry partner): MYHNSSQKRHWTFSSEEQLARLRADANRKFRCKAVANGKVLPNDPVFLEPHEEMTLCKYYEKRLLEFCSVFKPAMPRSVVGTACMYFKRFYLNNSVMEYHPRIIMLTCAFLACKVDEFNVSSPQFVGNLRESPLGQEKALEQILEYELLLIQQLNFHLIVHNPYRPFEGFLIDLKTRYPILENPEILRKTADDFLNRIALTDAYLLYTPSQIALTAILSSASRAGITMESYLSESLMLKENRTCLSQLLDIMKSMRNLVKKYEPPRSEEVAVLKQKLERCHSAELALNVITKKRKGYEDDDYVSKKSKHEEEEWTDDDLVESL
T1 sequence (P51948 whole entry partner): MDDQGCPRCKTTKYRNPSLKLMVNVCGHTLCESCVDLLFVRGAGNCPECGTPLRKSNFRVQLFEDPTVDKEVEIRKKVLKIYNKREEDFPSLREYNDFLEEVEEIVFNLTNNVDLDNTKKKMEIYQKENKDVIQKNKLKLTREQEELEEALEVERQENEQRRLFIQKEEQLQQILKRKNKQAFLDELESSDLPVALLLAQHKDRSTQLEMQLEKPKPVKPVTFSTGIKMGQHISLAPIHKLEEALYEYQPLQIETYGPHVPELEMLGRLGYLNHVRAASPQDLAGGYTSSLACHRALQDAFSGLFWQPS

Row | SMILES | degradation of CDK7 (immunoblot)
1 | CN(C)C[C@@H](NC(=O)N1Cc2c(NC(=O)c3ccc(NC(=O)CCCNc4cccc5c4C(=O)N(C4CCC(=O)NC4=O)C5=O)cc3)n[nH]c2C1(C)C)c1ccccc1 (stereo partly drawn) [Compound 16, N—((S)-2-(dimethylamino)-1-phenylethyl)-3-(4-(4-((2-(2,6-dioxopiperidin-3-yl)-1,3-dioxoisoindolin-4-yl)amino)butanamido)benzamido)-6,6-dimethyl-4,6-dihydropyrrolo[3,4-c]pyrazole-5(1H)-carboxamide] | induced the degradation of CDK7
2 | CN(C)C[C@@H](NC(=O)N1Cc2c(NC(=O)c3ccc(C(=O)NCCCCCCCCOc4cccc5c4C(=O)N(C4CCC(=O)NC4=O)C5=O)cc3)n[nH]c2C1(C)C)c1ccccc1 (stereo partly drawn) [Compound 9, N^1-(5-(((S)-2-(dimethylamino)-1-phenylethyl)carbamoyl)-6,6-dimethyl-1,4,5,6-tetrahydropyrrolo[3,4-c]pyrazol-3-yl)-N^4-(8-((2-(2,6-dioxopiperidin-3-yl)-1,3-dioxoisoindolin-4-yl)oxy)octyl)terephthalamide] | induced the degradation of CDK7
3 | Cc1ncsc1-c1ccc([C@H](C)NC(=O)[C@@H]2C[C@@H](O)CN2C(=O)[C@@H](NC(=O)CCCCCNC(=O)c2ccc(C(=O)Nc3n[nH]c4c3CN(C(=O)N[C@H](CN(C)C)c3ccccc3)C4(C)C)cc2)C(C)(C)C)cc1 [Compound 12, N^1-(5-(((S)-2-(dimethylamino)-1-phenylethyl)carbamoyl)-6,6-dimethyl-1,4,5,6-tetrahydropyrrolo[3,4-c]pyrazol-3-yl)-N^4-(6-(((S)-1-((2S,4R)-4-hydroxy-2-(((S)-1-(4-(4-methylthiazol-5-yl)phenyl)ethyl)carbamoyl)pyrrolidin-1-yl)-3,3-dimethyl-1-oxobutan-2-yl)amino)-6-oxohexyl)terephthalamide] | induced the degradation of CDK7
4 | CN(C)C[C@@H](NC(=O)N1Cc2c(NC(=O)c3ccc(C(=O)NCCCCCOc4cccc5c4C(=O)N(C4CCC(=O)NC4=O)C5=O)cc3)n[nH]c2C1(C)C)c1ccccc1 (stereo partly drawn) [Compound 8, N^1-(5-(((S)-2-(dimethylamino)-1-phenylethyl)carbamoyl)-6,6-dimethyl-1,4,5,6-tetrahydropyrrolo[3,4-c]pyrazol-3-yl)-N^4-(5-((2-(2,6-dioxopiperidin-3-yl)-1,3-dioxoisoindolin-4-yl)oxy)pentyl)terephthalamide] | induced the degradation of CDK7
5 | Cc1ncsc1-c1ccc([C@H](C)NC(=O)[C@@H]2C[C@@H](O)CN2C(=O)[C@@H](NC(=O)CCOCCNC(=O)c2ccc(C(=O)Nc3n[nH]c4c3CN(C(=O)N[C@H](CN(C)C)c3ccccc3)C4(C)C)cc2)C(C)(C)C)cc1 [Compound 15, N^1-(5-(((S)-2-(dimethylamino)-1-phenylethyl)carbamoyl)-6,6-dimethyl-1,4,5,6-tetrahydropyrrolo[3,4-c]pyrazol-3-yl)-N^4-(2-(3-(((S)-1-((2S,4R)-4-hydroxy-2-(((S)-1-(4-(4-methylthiazol-5-yl)phenyl)ethyl)carbamoyl)pyrrolidin-1-yl)-3,3-dimethyl-1-oxobutan-2-yl)amino)-3-oxopropoxy)ethyl)terephthalamide] | induced the degradation of CDK7
6 | CN(C)C[C@@H](NC(=O)N1Cc2c(NC(=O)c3ccc(NC(=O)CCCCCCCCCCOc4cccc5c4C(=O)N(C4CCC(=O)NC4=O)C5=O)cc3)n[nH]c2C1(C)C)c1ccccc1 (stereo partly drawn) [Compound 10, N—((S)-2-(dimethylamino)-1-phenylethyl)-3-(4-(11-((2-(2,6-dioxopiperidin-3-yl)-1,3-dioxoisoindolin-4-yl)oxy)undecanamido)benzamido)-6,6-dimethyl-4,6-dihydropyrrolo[3,4-c]pyrazole-5(1H)-carboxamide] | induced the degradation of CDK7
7 | CN(C)C[C@@H](NC(=O)N1Cc2c(NC(=O)c3ccc(C(=O)NCCCCCCc4cccc5c4C(=O)N(C4CCC(=O)NC4=O)C5=O)cc3)n[nH]c2C1(C)C)c1ccccc1 (stereo partly drawn) [Compound 13, N^1-(5-(((S)-2-(dimethylamino)-1-phenylethyl)carbamoyl)-6,6-dimethyl-1,4,5,6-tetrahydropyrrolo[3,4-c]pyrazol-3-yl)-N^4-(6-(2-(2,6-dioxopiperidin-3-yl)-1,3-dioxoisoindolin-4-yl)hexyl)terephthalamide] | induced the degradation of CDK7
8 | Cc1ncsc1-c1ccc([C@H](C)NC(=O)[C@@H]2C[C@@H](O)CN2C(=O)[C@@H](NC(=O)CCOCCOCCOCCNC(=O)c2ccc(C(=O)Nc3n[nH]c4c3CN(C(=O)N[C@H](CN(C)C)c3ccccc3)C4(C)C)cc2)C(C)(C)C)cc1 [Compound 25, N^1-(5-(((S)-2-(dimethylamino)-1-phenylethyl)carbamoyl)-6,6-dimethyl-1,4,5,6-tetrahydropyrrolo[3,4-c]pyrazol-3-yl)-N^4—((S)-14-((2S,4R)-4-hydroxy-2-(((S)-1-(4-(4-methylthiazol-5-yl)phenyl)ethyl)carbamoyl)pyrrolidine-1-carbonyl)-15,15-dimethyl-12-oxo-3,6,9-trioxa-13-azahexadecyl)terephthalamide] | induced the degradation of CDK7
9 | Cc1ncsc1-c1ccc([C@H](C)NC(=O)[C@@H]2C[C@@H](O)CN2C(=O)[C@@H](NC(=O)CCOCCOCCNC(=O)c2ccc(C(=O)Nc3n[nH]c4c3CN(C(=O)N[C@H](CN(C)C)c3ccccc3)C4(C)C)cc2)C(C)(C)C)cc1 [Compound 6] | induced the degradation of CDK7
10 | Cc1ncsc1-c1ccc([C@H](C)NC(=O)[C@@H]2C[C@@H](O)CN2C(=O)[C@@H](NC(=O)CCCCCCCNC(=O)c2ccc(C(=O)Nc3n[nH]c4c3CN(C(=O)N[C@H](CN(C)C)c3ccccc3)C4(C)C)cc2)C(C)(C)C)cc1 [Compound 23, N^1-(5-(((S)-2-(dimethylamino)-1-phenylethyl)carbamoyl)-6,6-dimethyl-1,4,5,6-tetrahydropyrrolo[3,4-c]pyrazol-3-yl)-N^4-(8-(((S)-1-((2S,4R)-4-hydroxy-2-(((S)-1-(4-(4-methylthiazol-5-yl)phenyl)ethyl)carbamoyl)pyrrolidin-1-yl)-3,3-dimethyl-1-oxobutan-2-yl)amino)-8-oxooctyl)terephthalamide] | induced the degradation of CDK7
11 | CN(C)C[C@@H](NC(=O)N1Cc2c(NC(=O)c3ccc(C(=O)NCCCCCNc4ccc5c(c4)C(=O)N(C4CCC(=O)NC4=O)C5=O)cc3)n[nH]c2C1(C)C)c1ccccc1 (stereo partly drawn) [Compound 21, N^1-(5-(((S)-2-(dimethylamino)-1-phenylethyl)carbamoyl)-6,6-dimethyl-1,4,5,6-tetrahydropyrrolo[3,4-c]pyrazol-3-yl)-N^4-(5-((2-(2,6-dioxopiperidin-3-yl)-1,3-dioxoisoindolin-5-yl)amino)pentyl)terephthalamide] | induced the degradation of CDK7
12 | CN(C)C[C@@H](NC(=O)N1Cc2c(NC(=O)c3ccc(C(=O)NCCCCC#Cc4cccc5c4C(=O)N(C4CCC(=O)NC4=O)C5=O)cc3)n[nH]c2C1(C)C)c1ccccc1 (stereo partly drawn) [Compound 7, N^1-(5-(((S)-2-(dimethylamino)-1-phenylethyl)carbamoyl)-6,6-dimethyl-1,4,5,6-tetrahydropyrrolo[3,4-c]pyrazol-3-yl)-N^4-(6-(2-(2,6-dioxopiperidin-3-yl)-1,3-dioxoisoindolin-4-yl)hex-5-yn-1-yl)terephthalamide] | induced the degradation of CDK7
13 | Cc1ncsc1-c1ccc([C@H](C)NC(=O)[C@@H]2C[C@@H](O)CN2C(=O)[C@@H](NC(=O)CCCCCCNC(=O)c2ccc(C(=O)Nc3n[nH]c4c3CN(C(=O)N[C@H](CN(C)C)c3ccccc3)C4(C)C)cc2)C(C)(C)C)cc1 [Compound 22, N^1-(5-(((S)-2-(dimethylamino)-1-phenylethyl)carbamoyl)-6,6-dimethyl-1,4,5,6-tetrahydropyrrolo[3,4-c]pyrazol-3-yl)-N^4-(7-(((S)-1-((2S,4R)-4-hydroxy-2-(((S)-1-(4-(4-methylthiazol-5-yl)phenyl)ethyl)carbamoyl)pyrrolidin-1-yl)-3,3-dimethyl-1-oxobutan-2-yl)amino)-7-oxoheptyl)terephthalamide] | induced the degradation of CDK7
14 | CN(C)C[C@@H](NC(=O)N1Cc2c(NC(=O)c3ccc(C(=O)NCCOCCOCCNc4cccc5c4C(=O)N(C4CCC(=O)NC4=O)C5=O)cc3)n[nH]c2C1(C)C)c1ccccc1 (stereo partly drawn) [Compound 26, N^1-(5-(((S)-2-(dimethylamino)-1-phenylethyl)carbamoyl)-6,6-dimethyl-1,4,5,6-tetrahydropyrrolo[3,4-c]pyrazol-3-yl)-N^4-(2-(2-(2-((2-(2,6-dioxopiperidin-3-yl)-1,3-dioxoisoindolin-4-yl)amino)ethoxy)ethoxy)ethyl)terephthalamide] | induced the degradation of CDK7
15 | CN(C)C[C@@H](NC(=O)N1Cc2c(NC(=O)c3ccc(C(=O)NCCOCCOCCOCCNc4cccc5c4C(=O)N(C4CCC(=O)NC4=O)C5=O)cc3)n[nH]c2C1(C)C)c1ccccc1 (stereo partly drawn) [Compound 1, N1-(5-(((S)-2-(dimethylamino)-1-phenylethyl)carbamoyl)-6,6-dimethyl-1,4,5,6-tetrahydropyrrolo[3,4-c]pyrazol-3-yl)-N4-(2-(2-(2-(2-((2-(2,6-dioxopiperidin-3-yl)-1,3-dioxoisoindolin-4-yl)amino)ethoxy)ethoxy)ethoxy)ethyl)terephthalamide] | induced the degradation of CDK7
